Entries after “also recorded” stand apart in the source; their conditions may differ.
Assays:
human PPARα-LBD = target: T1, human PPARα-LBD (Homo sapiens, UniProt Q07869); assay: MARCONI / PamStation nuclear hormone receptor coregulator assay; type: binding; settings: 50 μM
T1 construct: purchased Invitrogen PV4692
T1 sequence (Q07869 239-466 limits assumed): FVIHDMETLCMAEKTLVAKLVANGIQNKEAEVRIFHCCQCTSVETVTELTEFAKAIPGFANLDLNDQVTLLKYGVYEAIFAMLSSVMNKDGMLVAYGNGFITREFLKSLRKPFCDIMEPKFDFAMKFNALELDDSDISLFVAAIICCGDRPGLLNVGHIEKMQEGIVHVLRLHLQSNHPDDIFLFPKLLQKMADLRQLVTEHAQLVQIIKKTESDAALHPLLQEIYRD
Method: The molecular determinants that dictate specificity and selectivity in PPARα-coregulator interactions are largely unknown. […] To determine if bilirubin binds to the ligand binding domain (LBD) of PPARα to cause recruitment of a specific set of co-regulator proteins, the Microarray Assay for Realtime Coregulator-Nuclear Receptor Interaction (MARCONI) technology was used.
Incubation was performed at 37° C. for 5 minutes in 1.5 ml microtubes prior to placement on respective array for analysis in a PamStation96 (Pamgene International). PPARα binding was reflected via fluorescent signals recorded through the Pamstation96. The signals were transformed into tiff images and binding capacity was quantified using BioNavigator software (Pamgene International).

BAT cells [1] = assay: SeaHorse analysis in murine BAT cell line (wild-type); type: cell-based
[2] = tested on: BAT PPARα CRISPR KO cells; assay: Seahorse analysis in BAT PPARα CRISPR KO cells; type: cell-based, mouse; settings: both KO clones, 24 hours
Excerpt: To further delineate the actions of bilirubin on BAT, CRISPR technology was developed to knockout (KO) PPARα and establish two null clone lines. […]. The function of the ligands was lost in both clones for the BAT PPARα CRISPR KO cells.
CRISPR-Technology was employed in BAT as previously described to excise part of Exon 3 and Exon 4 of the PPARα gene to create a PPARα Knockout BAT cell line. Two sgRNAs with high efficacy and low off-target scores were identified on Exon 3 and 4 of the mouse PPARα gene using Benchling online software. The two Cas9 targets were separated by 9,465 bases. All of the off-targets to our PPARα sgRNA had 4 mismatches, of which at least 1-2 were within the seed region (up to 12 bases proximal to the protospacer adjacent motif (PAM) site) which reduces the likelihood of Cas9 off-target effects. The multiplex sgRNAs were generated using the PrecisionX Multiplex gRNA Cloning Kit according to manufacturer instructions. […] After 36 h of transfection, cells with the top 10% level of fluorescence were single-sorted into 96-well plates by fluorescent activated cell sorting. […]
Cellular respiration was quantified using the Seahorse Extracellular Flux Analyzer XF-96 (Agilent Technologies, Cedar Creek, TX). […] The oxygen consumption rate (OCR) and extracellular acidification rate (ECAR) were used to quantify the cellular energy phenotype of the cells. […]

BAT cells [3] = assay: Real-time PCR in differentiated BAT cells; type: cell-based, murine; settings: 50 μM biliverdin, 50 μM WY14,463, 10 μM rosiglitazone, 24 hrs
Method: Total RNA was extracted from mouse tissues using the miRNeasy Mini Kit (Qiagen). Total RNA was read on a NanoDrop 2000 spectrophotometer (Thermo Fisher Scientific, Wilmington, DE) and cDNA was synthesized using High Capacity cDNA Reverse Transcription Kit (Applied Biosystems). PCR amplification of the cDNA was performed by quantitative real-time PCR using TrueAmp SYBR Green qPCR SuperMix (Advance Bioscience). The thermocycling protocol consisted of 3 min at 95° C., 48 cycles of 15 sec at 95° C., 30 sec at 60° C., and based on primer size 0 to 30 sec at 72° C. and finished with a melting curve ranging from 60-95° C. to allow distinction of specific products. Normalization was performed in separate reactions with primers to 36B4.

3T3-L1-WAT adipocytes = assay: SeaHorse oxygen consumption rate in fully differentiated 3T3-L1-WAT adipocytes; type: cell-based, mouse; settings: 50 μM biliverdin, 50 μM WY 14,463, 10 μM rosiglitazone
Method: To compare the effects of bilirubin on the activation of PPARα or PPARγ on mitochondrial function, a SeaHorse XFe96 Analyzer was used to measure oxygen consumption rate (OCR) in fully differentiated 3T3-L1-WAT adipocytes treated with 50 μM biliverdin, 50 μM WY 14,463 (PPARα agonist), or 10 μM rosiglitazone (PPARγ-agonist). […]. Rosiglitazone, but not biliverdin or WY 14,643, enhanced the coupling efficiency. None of the ligands affected non-mitochondrial respiration, basal respiration, or proton leak.
Cellular respiration was quantified using the Seahorse Extracellular Flux Analyzer XF-96 (Agilent Technologies, Cedar Creek, TX). The Seahorse XF Cell Mito Stress Test Kit (Agilent Technologies, Cat #103015-100) was used for analysis of cellular respiration. BAT or 3T3-L1 cells were seeded on a XF96 cell culture microplate (Agilent 101085-004) at 20,000 cells per well. Cells were then differentiated as previously described for 9 days. […] The oxygen consumption rate (OCR) and extracellular acidification rate (ECAR) were used to quantify the cellular energy phenotype of the cells. After treatment, cells were washed twice with Seahorse Bioscience Assay Media (XF Base media with 25 mM Glucose, 2 mM […], and 1 mM Sodium Pyruvate) then incubated with the buffer for 1 hour in a non-CO2 incubator. The Seahorse Cartridge ports were loaded with […] of assay media with […] FCCP, 10 μM Oligomycin, 5 μM Rotenone/Antimycin A in different ports an hour before assay. […] The raw data and graphs were supplied as an Excel File or Graphpad Prizm file.

SMILES	binding to the human PPARα-LBD (human PPARα-LBD)	binding of the human PPARα LBD to coregulator motifs (human PPARα-LBD; 154 coregulator motifs)	coregulators with reduced interactions with the human PPARα LBD (human PPARα-LBD; subtracted from the vehicle)	highest interacting coregulators recruited to PPARα-LBD (human PPARα-LBD; subtracted from the vehicle)	proton leak (BAT cells [1]; BAT cells)	ATP production (BAT cells [1]; WT BAT cells, 24 hours)	basal respiration (OCR) (BAT cells [1]; WT BAT cells, 24 hours)	maximum respiration (OCR) (BAT cells [1]; WT BAT cells, 24 hours)	function of the ligands on mitochondrial function (OCR) [2]	Adrb3 mRNA (BAT cells [3])	Ucp1 mRNA (BAT cells [3])	ATP production (3T3-L1-WAT adipocytes)	mitochondrial OCR for maximum respiration (3T3-L1-WAT adipocytes)
C=CC1=C(C)/C(=C/c2[nH]c(Cc3[nH]c(/C=C4\NC(=O)C(C)=C4C=C)c(C)c3CCC(=O)O)c(CCC(=O)O)c2C)NC1=O [bilirubin, Bilirubin]	direct binding	mitigate binding	PRGR (LXXL 102-124), PRGC1 (LXXL 134-154), and PELP1 (LXXL 446-468)	MAPE (LXXL 249-271), WIPII (LXXL 313-335), CNOT1 (LXXL 2083-2105), PELP1 (LXXL 571-593), and others	–	–	–	–	–	–	–	–	–
Cc1cccc(Nc2cc(Cl)nc(SCC(=O)O)n2)c1C [WY 14,643, WY-14,643]	–	–	–	–	stimulated	increased; also recorded: stimulated	increased	increased; also recorded: significantly higher	lost	significant increase	significant increase	not observed	significantly increased

From US20250281460A1, “PEGYLATED BILIRUBIN FOR THE TREATMENT OF […], OBESITY, FATTY LIVER DISEASE, CARDIOVASCULAR DISEASES AND TYPE II DIABETES” (The University of Toledo, priority 2019, published 2025)
